The conditions of the series: Liquid; for mass density: 298.15 K, 101.33 kPa, Pycnometric method.

± gives the expanded uncertainty stated by the source.

The term mass density denotes mass per unit of volume.

As to `C1CC1C(C1CC1)C1CC1` [tricyclopropylmethane], the mass density is reported as 850 ± 1 kg/m3. In addition, the Normal boiling temperature (Distillation) is 160 ± 2 °C.
`O=[N+]([O-])C(C1CC1)(C1CC1)[N+](=O)[O-]` [dicyclopropyldinitromethane]: the mass density was found to be 1239.7 ± 1 kg/m3. The Normal boiling temperature (boiling in a capillary) was 290 ± 3 °C.

(Values after the NIST ThermoML archive (doi:10.1016/j.jct.2018.12.040).)
